Laboratory results taken from the supplement of paper PMC10307832.

Legend:
Assay in all cases: relative viability (nuclei count vs DMSO), 5 days (fraction); higher = more cells survive
Crizotinib + Pemetrexed = compound: C[C@@H](Oc1cc(-c2cnn(C3CCNCC3)c2)cnc1N)c1c(Cl)ccc(F)c1Cl [Crizotinib] + Nc1nc2[nH]cc(CCc3ccc(C(=O)N[C@@H](CCC(=O)O)C(=O)O)cc3)c2c(=O)[nH]1 [Pemetrexed] (partner 0.2 µM)
Summary of the method: (§1)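 For relative viability, nuclei counts in treated wells were divided by those in vehicle wells. Lung cancer cell lines had been pin-tool dosed in 1536-well plates the day after seeding and cultured for 5 days, then fixed and stained in one step (final 0.05% Triton X-100, 1% formaldehyde, 1 ug/ml Hoechst) and imaged at 4×. Doses were one drug alone or a fixed anchor-drug dose plus five library-drug doses (not always all listed) in √10 steps, and values are duplicate-plate medians.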

Carfilzomib + AZD7762 = compound: CC(C)C[C@H](NC(=O)[C@H](CCc1ccccc1)NC(=O)CN1CCOCC1)C(=O)N[C@@H](Cc1ccccc1)C(=O)N[C@@H](CC(C)C)C(=O)[C@@]1(C)CO1 [Carfilzomib] + NC(=O)Nc1cc(-c2cccc(F)c2)sc1C(=O)N[C@H]1CCCNC1 [AZD7762] (partner 0.2 µM)
Summary of the method: as §1

Olaparib + Linsitinib = compound: O=C(c1cc(Cc2n[nH]c(=O)c3ccccc23)ccc1F)N1CCN(C(=O)C2CC2)CC1 [Olaparib] + C[C@]1(O)C[C@@H](c2nc(-c3ccc4ccc(-c5ccccc5)nc4c3)c3c(N)nccn32)C1 [Linsitinib] (partner 1 µM)
Summary of the method: as §1

Carfilzomib + Trametinib = compound: CC(C)C[C@H](NC(=O)[C@H](CCc1ccccc1)NC(=O)CN1CCOCC1)C(=O)N[C@@H](Cc1ccccc1)C(=O)N[C@@H](CC(C)C)C(=O)[C@@]1(C)CO1 [Carfilzomib] + CC(=O)Nc1cccc(-n2c(=O)n(C3CC3)c(=O)c3c(Nc4ccc(I)cc4F)n(C)c(=O)c(C)c32)c1 [Trametinib] (partner 0.02 µM)
Summary of the method: as §1

| Cell Line | relative viability (Crizotinib + Pemetrexed; first compound 0.01 µM) | relative viability (Crizotinib + Pemetrexed; first compound 0.03162 µM) | relative viability (Crizotinib + Pemetrexed; first compound 0.1 µM) | relative viability (Crizotinib + Pemetrexed; first compound 0.3162 µM) | relative viability (Carfilzomib + AZD7762; first compound 0.001 µM) | relative viability (Carfilzomib + AZD7762; first compound 0.003162 µM) | relative viability (Carfilzomib + AZD7762; first compound 0.01 µM) | relative viability (Carfilzomib + AZD7762; first compound 0.03162 µM) | relative viability (Carfilzomib + AZD7762; first compound 0.1 µM) | relative viability (Olaparib + Linsitinib; first compound 0.08 µM) | relative viability (Olaparib + Linsitinib; first compound 0.253 µM) | relative viability (Olaparib + Linsitinib; first compound 2.53 µM) | relative viability (Olaparib + Linsitinib; first compound 8 µM) | relative viability (Carfilzomib + Trametinib; first compound 0.001 µM) | relative viability (Carfilzomib + Trametinib; first compound 0.003162 µM) | relative viability (Carfilzomib + Trametinib; first compound 0.01 µM) | relative viability (Carfilzomib + Trametinib; first compound 0.03162 µM) | relative viability (Carfilzomib + Trametinib; first compound 0.1 µM) | relative viability (Crizotinib + Pemetrexed; first compound 1 µM) |
| --- | --- | --- | --- | --- | --- | --- | --- | --- | --- | --- | --- | --- | --- | --- | --- | --- | --- | --- | --- |
| HCC-78 | 0.88 | 0.865 | 0.889 | 0.855 | 0.505 | 0.772 | 0.789 | 0.492 | 0.311 | 0.732 | 0.456 | 0.533 | 0.473 | 0.672 | 0.849 | 0.69 | 0.597 | 0.255 | – |
| IA-LM | – | – | – | – | – | – | – | – | – | 0.891 | 0.391 | 0.672 | 0.443 | – | – | – | – | – | – |
| NCI-H520 | 0.564 | 0.626 | 0.644 | 0.789 | – | – | – | – | – | 1.17 | 0.825 | 0.872 | 0.663 | 0.531 | 0.697 | 0.598 | 0.124 | 0.134 | 0.756 |
| NCI-H522 | 1.04 | 0.968 | 0.828 | 1.04 | 0.782 | 0.901 | 0.925 | 0.428 | 0.337 | – | – | – | – | 0.777 | 0.767 | 0.815 | 0.506 | 0.336 | 0.999 |
| NCI-H661 | 0.82 | 0.939 | 0.854 | 1 | – | – | – | – | – | 0.773 | 0.593 | 0.518 | 0.573 | 0.642 | 0.635 | 0.599 | 0.526 | 0.276 | 0.904 |
| NCI-H727 | – | – | – | – | 0.511 | 0.498 | 0.685 | 0.608 | 0.242 | 0.283 | 0.241 | 0.247 | 0.282 | 0.428 | 0.376 | 0.46 | 0.41 | 0.312 | – |
| NCI-H1299 | – | – | – | – | – | – | – | – | – | 1 | 0.945 | 0.966 | 0.943 | – | – | – | – | – | – |
| NCI-H1563 | 0.759 | 0.833 | 0.757 | 0.735 | – | – | – | – | – | 1.22 | 1.25 | 1.2 | 1.2 | – | – | – | – | – | 0.875 |
| NCI-H1648 | – | 0.703 | 0.568 | 0.81 | 0.657 | 0.621 | 0.603 | 0.407 | 0.268 | – | – | – | – | 0.685 | 0.566 | 0.592 | 0.394 | 0.261 | 0.675 |
| NCI-H1650 | 0.308 | 0.403 | 0.334 | 0.37 | – | – | – | – | – | – | – | – | – | 0.487 | 0.537 | 0.52 | 0.103 | 0.1 | 0.408 |
| NCI-H1703 | – | – | – | – | 0.121 | 0.168 | 0.128 | 0.107 | 0.0623 | 0.9 | 0.697 | 0.881 | 0.408 | – | – | – | – | – | – |
| NCI-H2009 | 1.02 | 1.05 | 0.974 | 0.957 | – | – | – | – | – | 1.28 | 1.17 | 1.09 | 0.928 | 0.232 | 0.312 | 0.287 | 0.295 | 0.119 | 0.989 |
| NCI-H2023 | 0.149 | 0.226 | 0.172 | 0.189 | – | – | – | – | – | 0.754 | 0.608 | 0.535 | 0.469 | 0.486 | 0.614 | 0.669 | 0.269 | 0.0795 | 0.209 |
| NCI-H2170 | 0.251 | 0.283 | 0.265 | 0.266 | 0.846 | 0.963 | 1.02 | 0.734 | 0.238 | – | – | – | – | 0.931 | 0.921 | 0.863 | 0.868 | 0.25 | 0.278 |
| NCI-H2228 | 0.338 | 0.324 | 0.296 | 0.352 | – | – | – | – | – | 0.686 | 0.629 | 0.698 | 0.434 | 0.235 | 0.584 | 0.697 | 0.103 | 0.109 | 0.317 |
| NCI-H2342 | 0.761 | 0.792 | 0.737 | 0.636 | 0.462 | 0.513 | 0.689 | 0.609 | 0.347 | – | – | – | – | 0.844 | 0.851 | 0.862 | 0.949 | 0.633 | 0.744 |
| SK-LU-1 | 0.887 | 0.911 | 0.815 | 1.02 | – | – | – | – | – | 1.34 | 0.998 | 1.02 | 0.622 | 0.394 | 0.545 | 0.474 | 0.202 | 0.185 | 0.922 |
| SK-MES-1 | 0.879 | 0.928 | 0.927 | – | – | – | – | – | – | 1.14 | 0.996 | 1.05 | 0.796 | 0.545 | 0.536 | 0.549 | 0.44 | 0.201 | 0.924 |
| SW 900 | 0.505 | 0.437 | 0.493 | 0.476 | – | 0.67 | 0.226 | 0.168 | 0.206 | – | – | – | – | – | 0.804 | 0.163 | 0.177 | 0.126 | 0.466 |
| SW 1573 | – | 0.797 | 0.749 | 0.676 | – | – | – | – | – | 0.893 | 0.889 | 0.661 | 0.73 | 0.55 | 0.626 | 0.55 | 0.0697 | 0.0572 | 0.908 |
| UMC-11 | 0.864 | 0.76 | 0.732 | 0.814 | – | – | – | – | – | 1.03 | 0.974 | 0.798 | 0.504 | 0.32 | 0.739 | 0.657 | 0.703 | 0.322 | 0.841 |
